Data set [1] has as its target T1, soluble guanylate cyclase (Homo sapiens, UniProt Q02153).
T1 construct: The guanylate cyclase activity in the supernatant after incubation with and without the test substance; endogenous in cells; host or cells: human blood platelets, supernatant of homogenate
T1 sequence (Q02153 1-619): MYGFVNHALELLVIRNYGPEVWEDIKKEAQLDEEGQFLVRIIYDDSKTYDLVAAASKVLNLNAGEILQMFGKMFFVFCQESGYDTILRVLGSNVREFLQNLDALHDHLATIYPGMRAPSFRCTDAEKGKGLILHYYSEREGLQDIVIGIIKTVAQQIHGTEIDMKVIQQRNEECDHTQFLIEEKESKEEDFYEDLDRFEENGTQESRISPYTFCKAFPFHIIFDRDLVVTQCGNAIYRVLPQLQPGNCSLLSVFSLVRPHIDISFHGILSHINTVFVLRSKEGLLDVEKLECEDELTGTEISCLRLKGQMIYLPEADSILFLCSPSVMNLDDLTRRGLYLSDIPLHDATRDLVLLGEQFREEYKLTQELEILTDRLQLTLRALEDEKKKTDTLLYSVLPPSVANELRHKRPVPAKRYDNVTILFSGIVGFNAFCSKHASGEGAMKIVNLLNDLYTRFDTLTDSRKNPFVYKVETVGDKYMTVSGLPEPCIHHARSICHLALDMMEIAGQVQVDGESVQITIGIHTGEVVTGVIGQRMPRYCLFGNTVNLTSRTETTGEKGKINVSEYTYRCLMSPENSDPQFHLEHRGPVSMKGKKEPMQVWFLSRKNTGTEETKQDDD
T1 sequence (Q02108 1-690 partner): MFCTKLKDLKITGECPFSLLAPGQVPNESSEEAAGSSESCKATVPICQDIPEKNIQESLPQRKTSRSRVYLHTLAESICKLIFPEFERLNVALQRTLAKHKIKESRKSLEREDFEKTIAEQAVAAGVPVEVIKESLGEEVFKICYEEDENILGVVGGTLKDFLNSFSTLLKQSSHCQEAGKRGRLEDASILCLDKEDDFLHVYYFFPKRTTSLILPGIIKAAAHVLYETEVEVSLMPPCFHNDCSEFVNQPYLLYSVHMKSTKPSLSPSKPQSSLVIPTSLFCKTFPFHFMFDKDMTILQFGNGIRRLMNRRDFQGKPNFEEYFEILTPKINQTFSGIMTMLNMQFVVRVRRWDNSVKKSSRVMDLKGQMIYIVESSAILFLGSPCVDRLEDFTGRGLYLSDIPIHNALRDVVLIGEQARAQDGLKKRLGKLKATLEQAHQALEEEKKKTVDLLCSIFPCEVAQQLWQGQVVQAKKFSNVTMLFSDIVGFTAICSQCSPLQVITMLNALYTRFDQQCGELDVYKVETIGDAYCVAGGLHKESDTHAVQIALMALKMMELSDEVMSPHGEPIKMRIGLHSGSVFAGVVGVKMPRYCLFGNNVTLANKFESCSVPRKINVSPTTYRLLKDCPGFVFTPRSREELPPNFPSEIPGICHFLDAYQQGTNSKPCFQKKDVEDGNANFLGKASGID
As to the kind of experiment: Stimulation of guanylate cyclase from blood platelets (RIA). The class given is biochemical. The following applies: 37° C.

The test system of another data set is blood platelets. As to the kind of experiment: Inhibition of blood platelet aggregation (aggregometer, ADP). The class given is cell-based, human (healthy testees). The following applies: for IC50: Platelet, 0.05 h, read-out: IC50 (Inhibition of blood platelet aggregation). Here is the method: Compounds according to the invention were tested for their inhibition of clumping together (aggregation) of blood platelets (thrombocytes), which is the first phase of the formation of blood clots (thrombi). Such an inhibition may prevent the formation of blood clots and inhibit the development of new thrombi after a diagnosed thrombus.
Citrate stabilized ( 0.38% of sodium citrate, final concentration) venous blood from healthy testees is used, who have not used medicine for at least 8 days. Slight centrifugation (160×g for 10 minutes) results in PRP (blood plasma rich in platelets) which is pipetted. PPP (blood plasma poor in platelets) is obtained by an intense centrifugation (3000×g for 10 minutes) of the remaining blood. The light transmission is measured by the aggregometer (CHRONOLOG). PRP allows nearly no light transmitaaion, while PPP allows complete transmission of light. The PRP is placed in the aggregometer at 37° C. while being stirred by a magnet. Addition of a pro-aggregating substance causes the PRP to aggregate gradually and an increasing light transmission takes place at the same time. At complete aggregation a light transmission corresponding to PPP is obtained. Adnosine diphosphate (ADP) is used as pro-aggregating substance, said substance representing a basic biochemical mechanism for aggregation of blood platelets. The test substances are incubated for 3 minutes in PRP placed in the aggregometer at 37° C. during magnetic stirring. A predetermined positively aggregating dosage of adenosine diphosphate (ADP) (2 to 4 μM) is then added. […] A so-called IC50 -value (that is the concentration inhibiting the aggregation by 50% relative to the control aggregation) is calculated for each test substance by linear regression analysis (log concentration μM as constant ad abscissa and % inhibition as variable ad ordinate). The following known reference substances have been used: nitroglycerine (GTN), sodium nitroprusside (NNP) and SIN-1 (the active metabolite of molsidomine).

For a further data set, the system named is PAI-1. As to the kind of experiment: Inhibition of plasminogen activator inhibitor (PAI-1) from blood platelets (fibrinolytic activity). Type of data set: cell-based, human. The following applies: 50 μM, 60 minutes; for % Inhibition of PAI-1 activity: compared to control; for PAI-1 activity: human PRP, control 3.24. As to the method:
Compounds according to the invention were tested for their inhibition of plasminogen activator inhibitor (PAI). An established thrombus comprises aggregated platelets cohered by fibrin. The organism has a fibrinolyric system for maintaining normal physiological conditions. Endogenous plasminogen is activated to plasmin (fibrinolysin, that is a proteolytic enzyme decomposing fibrin) by means of a tissue plasminogen activator (t-PA). The platelets include the enzyme PAI-1 inhibiting the activation of plasminogen to plasmin, and thus also the decomposition of fibrin.
A general stimulation of the fibrinolytic system can cause serious hemostatic side effects (haemorrhages). A specific inhibition of PAI-1 induces an increased fibrinolysis in areas with many platelets, which is exactly the case in thrombi. As a result a thrombolytic effect is obtained.
Human PRP prepared by slight centrifugation as previously mentioned is used, but at a low temperature (4° C.). By incubation of PRP (1 ml in a plastic tube) during a slight shaking at 37° C. the PAI-1 activity is liberated, said PAI-1 activity being measured spectrophotometrically by means of a two-step procedure using commercial kits (Spectrolyse™/fibrin kit from BIOPOOL, Sweden).
The PAI-1 activity of the control PRP and PRP incubated with each of 6 compounds according to the invention and the reference substance sodium niroprusside (NNP) (50 μM of each for 60 minutes) appear from Table 6.

For a further data set, the system named is male rats. The following applies: rat, in vivo, po, 20 mg/kg. As to the method: Two tests were carried out on male rats, namely a determination of the "maximum tolerable dose" (MTD) and a test using multiple peroral doses. In addition, a LD50 test was carried out intravenously on mice.
At this test the substances were administered perorally in a dose of 20 mg per kg. as solutions or suspensions once a day for 5 days to groups of 5 animals. Clinical observations were made every day and the above hematological parameters were measured on the third day of the test.

For data set [2], the system named is polymorph nuclear leukocytes (PMNs), c-GMP. As to the kind of experiment: Stimulation of c-GMP content in PMNs. Type of data set: cell-based, human. The following applies: 37° C., 10 minutes. As to the method: Compounds according to the invention were tested for their ability to increase the content of cyclic guanosine monophosphate (c-GMP), to inhibit the synthesis of the leukotriene B4 (LTB4), and to inhibit the chemotactical movement of polymorph nuclear leukocytes (PMN). The polymorph nuclear leukocytes play a vital part in the cellular part of the inflammation process. At diseases, such as asthma, the mucuos membrane of the respiratory passages is swollen as a result of an inflammation with a significant infiltration of polymorph nuclear leukocytes (PMN's) in particular. Particularly effective substances for the treatment of asthma are such which in addition to relaxing the musculature in the respiratory passages also have an anti-inflammatory effect on the cellular phase of the inflammatory process, that is inhibiting the leukocyte function.
Isolated human PMNs are incubated at 37° C. for 10 minutes, whereafter the content of cyclic guanosine monophosphate (c-GMP) is measured. Further, the synthesis of the LTB4 is determined after stimulation with Ca-ionophore (A23187) and the chemotaxis (controlled movement) towards FMLP (a substance attracting the polymorph nuclear leukocytes, PMNs) is determined.
Three compounds according to the invention and the reference substance SIN-1 were tested for their ability to stimulate the content of cyclic guanosine monophosphate (c-GMP).

Where [3] appears, read: human PRP, ADP 2 to 4 μM, 3 min incubation, 37° C.

SMILES strings stand for the structures. Structures can show the parent of a compound that is named as a salt. Where two headings read alike, the source gives them in different places.

For the molecule `[NH-]c1n[n+](-c2ccccc2C(F)(F)F)no1` [Example 2], the results for the Guanylate cyclase activity in data set [1] (0.01 μM) and in data set [1] (10 μm (so in the source)) were 411 pmole c-GMP/mg prot. × 15 minutes and 37920 pmole c-GMP/mg prot. × 15 minutes, respectively.

As for `[NH-]c1n[n+](-c2cccc(C(F)(F)F)c2)no1` [Example 3, 3-(3-trifluoromethylphenyl)-1,2,3,4-oxatriazole-5-imine hydrochloride], the Guanylate cyclase activity is 2499 pmole c-GMP/mg prot. × 15 minutes in data set [1] (0.01 μM) and 47529 pmole c-GMP/mg prot. × 15 minutes in data set [1] (10 μm (so in the source)).

Regarding `N#Cc1cccc(-[n+]2noc([NH-])n2)c1` [Example 7], in the data set with blood platelets (setting [3]), the IC50 was determined as 100 nM.

For the molecule `N#Cc1ccc(-[n+]2noc([NH-])n2)cc1` [Example 8], in the data set with PAI-1, the “% Inhibition of PAI-1 activity” value is reported as 44% and the PAI-1 activity was 1.83 U/10^8 platelets. Besides, the Guanylate cyclase activity in data set [1] (0.01 μM) was 897 pmole c-GMP/mg prot. × 15 minutes. For the same molecule, the Guanylate cyclase activity in data set [1] (10 μm (so in the source)) is reported as 64192 pmole c-GMP/mg prot. × 15 minutes.

For the molecule `[NH-]c1n[n+](-c2ccc(Cl)c(C(F)(F)F)c2)no1` [Example 18], in the data set on blood platelets (Homo sapiens), the half-maximal inhibitory concentration (IC50) was found to be 540 nM. Further, in the data set with PAI-1, the “% Inhibition of PAI-1 activity” value was found to be 40% and the PAI-1 activity turned out to be 1.93 U/10^8 platelets.

For the molecule `[NH-]c1n[n+](-c2cccc(Cl)c2Cl)no1` [Example 21, 3-(2-chloro-3-chlorophenyl)-1,2,3,4-oxatriazole-5-imine], in the data set on male rats, the Clinical observations result is listed as “N.R”, the Hematological parameters result was “N.R” and the “Side effects (in words)” value is reported as “no side effects”.

Regarding `[NH-]c1n[n+](-c2c(Cl)cccc2Cl)no1` [Example 23], the Guanylate cyclase activity is 383 pmole c-GMP/mg prot. × 15 minutes in data set [1] (0.01 μM) and 76915 pmole c-GMP/mg prot. × 15 minutes in data set [1] (10 μm (so in the source)).

Regarding `[NH-]c1n[n+](-c2ccc(Cl)c(Cl)c2)no1` [Example 24], in the data set on PAI-1, the “% Inhibition of PAI-1 activity” value was 34%. In the data set with PAI-1, this molecule displayed a PAI-1 activity of 2.14 U/10^8 platelets. Moreover, the Guanylate cyclase activity in data set [1] (0.01 μM) is recorded as 2374 pmole c-GMP/mg prot. × 15 minutes; in data set [1] (10 μm (so in the source)), 59716 pmole c-GMP/mg prot. × 15 minutes. Moreover, the “c-GMP in PMNs” value in data set [2] (1 μM) was 391 fmole/10^6 cells; in data set [2] (10 μM) it was 965 fmole/10^6 cells; in data set [2] (100 μM), 1078 fmole/10^6 cells.

`[NH-]c1n[n+](-c2ccc(Cl)cc2F)no1` [Example 26]: in the data set with male rats, the Clinical observations result was “N.R”, the Hematological parameters result is “N.R” and the “Side effects (in words)” value is “no side effects”.

As to `O=C([N-]c1n[n+](-c2cccc(C(F)(F)F)c2)no1)c1cccnc1` [Example 34], the IC50 in the data set on blood platelets (setting [3]) was found to be 190 nM.

Regarding `O=C([N-]c1n[n+](-c2ccc(Cl)cc2Cl)no1)c1cccnc1` [Example 43], in the data set with male rats, the Clinical observations entry is “N.R”, the Hematological parameters result was “N.R” and the “Side effects (in words)” value was “no side effects”.

Regarding `O=C([N-]c1n[n+](-c2cccc(C(F)(F)F)c2)no1)c1ccncc1` [Example 50], the IC50 in the data set on blood platelets (setting [3]) was 90 nM. Besides, in the data set with male rats, the Clinical observations entry is given as “N.R”, the Hematological parameters result is given as “N.R” and the “Side effects (in words)” value is on record as “no side effects”.

For `Cc1c(Cl)cccc1-[n+]1noc([N-]C2CCCCC2)n1` [Example 63], the figures for the Guanylate cyclase activity in data set [1] (0.01 μM) and in data set [1] (10 μm (so in the source)) were 1761 pmole c-GMP/mg prot. × 15 minutes and 72730 pmole c-GMP/mg prot. × 15 minutes, respectively.

Turning to `O=[N+]([O-])OCC(CO[N+](=O)[O-])O[N+](=O)[O-]` [GTN, nitroglycerine, reference compound], the “Inhibition of blood platelet aggregation (in words)” value with blood platelets (ADP, PRP) was “inactive”. In addition, in the data set with blood platelets (setting [3]), the half-inhibitory concentration (IC50) came out at 100000 nM.

Usually IC50 stands for the point on the concentration scale where inhibition reaches its midpoint.

The values above are taken from patent publication US5405857A, “3-substituted 1,2,3,4,-oxatriazole-5-imine compounds, a process for the preparation thereof and a pharmaceutical preparation containing said compounds” (A/S GEA Farmaceutisk Fabrik, priority 1991, dated 1995).
